This is an account of results in patent publication US6056941A, “Kit for the preparation of technetium TC 99m teboroxime myocardial perfusion agent” (priority 1999, dated 2000).

Each structure is given as a SMILES string. A value given as a limit tells only on which side of the number the result lay.

A short description of this data set: Clearance following intravenous administration in normal subjects (heart and liver). It counts as in vivo, human. The text has this:
Table II approximates the effective clearance of Technetium Tc-99 m Teboroxime from the heart and liver.

`C[B-](ON=C1CCCCC1=N[O-])(ON=C1CCCCC1=NO)ON=C1CCCCC1=NO.[99Tc+3].[Cl-]` [Technetium Tc-99 m Teboroxime, ^99m Tc (chlorine) (1,2-cyclohexanedione dioxime)3 methyl boron]: the “clearance from the circulation” value was “rapidly cleared from the circulation”. Moreover, under “heart”, the “time of peak heart uptake” value is on record as no more than 2 min. Further, the “effective clearance, Heart” value (heart, 5 min) came out at 2.3%. The “effective clearance, Heart” value (heart, 10 min) was 1.7%. Besides, the “effective clearance, Heart” value (heart, 15 min) is listed as 1.5%. For the setting “heart, 20 min”, the “effective clearance, Heart” value is recorded as 1.3%. Further, where the note is “heart, 1 hr”, the “effective clearance, Heart” value was found to be 1.1%. For the setting “heart, 2 hr”, the “effective clearance, Heart” value worked out at 0.8%. The “effective clearance, Heart” value (heart, 4 hr) was 0.6%. The “effective clearance, Liver” value (5 min) is listed as 23%. In addition, the “effective clearance, Liver” value (10 min) is reported as 33%. For the same compound, the “effective clearance, Liver” value (15 min) is listed as 32%. The “effective clearance, Liver” value (20 min) is reported as 27%. Moreover, where the note is “1 hr”, the “effective clearance, Liver” value was 24%. Moreover, the “effective clearance, Liver” value (2 hr) is recorded as 18%. Moreover, the “effective clearance, Liver” value (4 hr) came to 17%.
